Test results as given in patent US7166744B2, “Retinoid derivatives and methods for producing said compounds and anti-cancer pharmaceutical composition comprising said compounds” (Chebigen Co., Ltd., priority 2001, dated 2007).
Entries after “also recorded” stand apart in the source; their conditions may differ.

How the values were obtained:
Format in all cases: cell-based
cancer cells [1] = assay: Acridine orange / ethidium bromide double staining; settings: 10 μM, 96 hours
Source text: Therefore, the anti-proliferation effect of KCBG60 is due to the induction of apoptosis.

RARs and RXRs = assay: CAT reporter assay, summary for RARs and RXRs (Experimental Example 9); settings: 1 μM
Source text: In order to confirm the effect of KCBG60 according to the present invention on retinoid receptor activity, cells were cotransfected with expression vectors of receptor subfamilies and reporter genes. As the reporter gene, chloramphenicol acetyltransferase (CAT) with a transcription control site reactive to respective receptors was used.
In the transcriptional activity for RXR type receptors, similar results were obtained.

[2] = system: HCT116 colon cancer cells; assay: DAPI staining of nuclei, HCT116; settings: for nuclear condensation (DAPI): HCT116, Experimental Example 8; for nuclear condensation and fragmentation (DAPI): HCT116, 5 μM, 36 h
Experimental: (§1) By DAPI (4,6-diamidino-2-phenylindole) staining assay for staining DNA in cellular nucleus, nuclear condensation and fragmentation, characteristic features of apoptosis, were observed. […] In FIG. 4, the control represents non-treated cells. The sub-G1 DNA contents of colon cancer HTC116 cells and breast cancer MCF-7 cells were measured by FACS (Fluorescence-Activated Cell Sorter) assay to quantify the apoptosis (FIG. 5). Finally, in order to further characterize the apoptosis observed in retinoid derivative-treated cells, the cleavage of apoptosis-related proteins, including PARP (poly(ADP-ribose)polymerase) and CPP32 (caspase-3) by Western blotting. […] PARP cleavage occurred in a time-dependent manner, in parallel with the induction of apoptosis (FIG. 6B). C in FIG. 6 represents the result of Western blotting of non-treated cells.
Meanwhile, HPR which is a precursor during the synthesis process of KCBG60 is known to induce apoptosis. Considering that the cells aggregated into small spherical mass upon treatment with KCBG60, KCBG60 is expected to induce apoptosis. In order to confirm apoptosis induced by KCBG60 once again, KCBG60-treated HCT116 cells were stained with DAPI and observed for nuclear condensation, an indicative of apoptosis (FIG. 12).

cancer cells [3] = assay: FACS analysis of DNA content; settings: 10 μM, 96 hours
Source text: In order to quantitatively determine the levels of apoptosis, the cells treated with the same conditions as above were subjected to FACS analysis to measure DNA contents (FIG. 11).

[4] = system: HCT116 colon cancer cells; assay: Optical microscopy of treated cells, HCT116; settings: HCT116, 5 μM, 48 hours, compared to HPR
Experimental: Both colon cancer HCT116 cells and breast cancer MCF-7 cells were treated with 5 μM of the retinoid derivatives KCBG10 and KCBG41 for 48 hours, and photographed by optical microscope (×200). As a control compound, HPR was used at the same concentration. In FIG. 2, the control represents non-treated cells.

HT29 colon cancer cells = assay: MTT proliferation assay, HT29
Experimental: (§2) The effects of test compounds on proliferation of various cancer cells was examined by 3-(4,5-dimethylthiazol-2-yl)-2,5-diphenyltetrazolium bromide (MTT, Sigma) assay in a dose dependent manner. In the MTT assay, colon, liver, cervix, ovary, and breast cancer cell lines were treated with test compounds at various concentrations. Living cancer cells reduce MTT to dark blue MTT formazan that would be measured by absorbance.
(§3) Colon cancer cells, HCT116, DLD-1 and HT29, cervix cancer cells, HeLa and CaSki, ovary cancer cells, SKOV-3, 2774 and OVCAR-3, liver cancer cells, SK-Hep-1, PLCPRF5 and HepG2, and breast cancer cells, ZR75-1 and MDA-MB 231 were seeded at an initial density of 3000 cells per well in 96-well plates. After attachment of cells to the walls of the wells, the medium containing fresh retinoid was treated with various concentrations (0.5 μM, 1 μM, 2.5 μM, 5 μM, 10 μM) for 48 hours. 50 μl of MTT solution (2 mg/ml in PBS) was added to cell culture media. The reaction micture was incubated at 37° C. in a 5% CO2 atmosphere for 4 hours. The supernatant was removed and 150 μl of DMSO was added. The optical density was measured spectrophotometrically at 550 nm. […] For other retinoid derivatives according to the present invention, absorbances were measured by this procedure and IC50 values, concentrations required for 50% growth inhibition, were determined.

MMP-3 mRNA expression = assay: RT-PCR of MMP-3 mRNA in HCT116; settings: HCT116, 1 μM, 36 hours
Experimental: Previously, it was shown that the synthetic retinoid derivatives inhibit the transcriptional activity of AP-1. Also, it is well known that MMP (matrix metalloproteinase), a main target gene of AP-1 is involved in metastasis of cancer cells. Therefore, the inhibitive effects of the retinoid derivatives on metastasis of cancer was examined by RT-PCR analysis. Colon cancer HCT116 cells were treated with 1 μM retinoid for 36 hours. RNA was isolated from the cells and mRNA expression levels of MMP-1, -2 and -3 were analyzed by RT-PCR. […] As the control, GAPDH was used and it was confirmed that its expression was not affected by retinoid. Meanwhile, the expression level of MMP-3 was affected weakly by KCBG40, intermediately by KCBG41 but strongly by KCBG10 (FIG. 9).

[5] = system: PARP (poly(ADP-ribose)polymerase) and CPP32 (caspase-3) cleavage in HCT 116 cells; assay: Western blotting of PARP and CPP32 cleavage; settings: 5 μM
Experimental: FIG. 6 is the cleavage results of PARP and CPP-32, by a Western blotting analysis, derived from colon cancer cells HCT 116 to which the respective retinoid derivatives were treated.
as §1

[6] = system: SKOV-3 ovary cancer cells; assay: MTT proliferation assay, SKOV-3; settings: ovarian cancer
Experimental: as §2, §3

[7] = system: SK-Hep-1 liver cancer cells; assay: MTT proliferation assay, SK-Hep-1
Experimental: as §2, §3

[8] = system: ZR75-1 breast cancer cells; assay: MTT proliferation assay, ZR75-1
Experimental: as §2, §3

colon cancer cells = assay: MTT proliferation assay, colon cancer cells (Table 1); settings: 48 hours, concentration required for 50% growth inhibition, read-out: IC50, activities of various retinoid derivatives in colon cancer cells
Experimental: as §2, §3

HeLa cervix cancer cells = assay: MTT proliferation assay, HeLa; settings: 48 hours, uterine cancer
Experimental: as §2, §3

IC50 (HT29 colon cancer cells; 48 hours) | IC50 ([6]; 48 hours) | IC50 ([7]; 48 hours) | IC50 ([8]; 48 hours) | IC50 (colon cancer cells) | IC50 (HeLa cervix cancer cells) | Compound | acridine orange / ethidium bromide staining colour of cells (cancer cells [1]) | nuclear condensation (DAPI) [2] | relative rate of dead cells having a DNA content of 2N or less (cancer cells [3]) | number of viable cancer cells (microscopy) [4] | effect on MMP-3 mRNA expression level (MMP-3 mRNA expression) | cleavage of PARP and CPP32 (Western blotting) [5] | nuclear condensation and fragmentation (DAPI) [2] | further results
– | – | – | – | – | – | CCCC(=O)Oc1ccc(NC(=O)/C=C(C)/C=C/C=C(C)/C=C/C2=C(C)CCCC2(C)C)cc1 [KCBG60] | cells were stained with orange color | showed small spots, indicating nuclear condensation | much higher rates than other groups | – | – | – | – | activity for RARs and RXRs (RARs and RXRs): activity as low as the control and phenyl butylate-treated group; also recorded: almost no activity for RARs and RXRs
6 µM | 0.5 µM | 4.5 µM | 2 µM | 3 µM | 0.5 µM | CCCC(=O)Oc1cc(O)ccc1NC(=O)/C=C(C)/C=C/C=C(C)/C=C/C1=C(C)CCCC1(C)C [KCBG10, 2.2-[(2E,4E,6E,8E)-3,7-Dimethyl-9-(2,6,6-trimethylcyclohex-1-enyl)-nona-2,4,6,8-tetraenoylamino]-5-hydroxyphenylbutanoate] | – | – | – | significant reductions in the number of viable cancer cells | strongly | induced the cleavage of the proteins | largely showed nuclear fragmentation | –
– | – | – | – | 20 µM | – | CC1=C(/C=C/C(C)=C/C=C/C(C)=C/C(=O)O)C(C)(C)CCC1 [ATRA, All-trans-retinoic acid, reference compound] | – | – | – | – | – | – | – | IC50 (HT29 colon cancer cells; Homo sapiens, HT-29, 48 hours): 18 µM; IC50 ([6]; Homo sapiens, SK-OV-3, 48 hours): > 100 µM; IC50 ([7]; Homo sapiens, SK-HEP1, 48 hours): > 500 µM; IC50 ([8]; Homo sapiens, ZR-75-1, 48 hours): > 500 µM; IC50 (HeLa cervix cancer cells; Homo sapiens, HeLa): 5 µM
1.2 µM | 3 µM | 0.8 µM | 4.1 µM | 0.3 µM | 3 µM | CCCC(=O)Nc1cc(NC(=O)/C=C(C)/C=C/C=C(C)/C=C/C2=C(C)CCCC2(C)C)ccc1O [KCBG41, (2E,4E,6E,8E)-[3,7-dimethyl-9-(2,6,6-trimethylcyclohex-1-enyl)-nona-2,4,6,8-tetraenoylamino]-(3-butyrylamino-4-hydroxy)phenylamide] | – | – | – | significant reductions in the number of viable cancer cells; also recorded: more effective on HCT116 than other derivatives | intermediately | induced the cleavage of the proteins | largely showed nuclear fragmentation | –
– | – | – | – | – | – | phenyl butylate | cells remained normal green color | nuclei were observed normal | – | – | – | – | – | –

Compound | IC50 (HT29 colon cancer cells; 48 hours) | IC50 ([6]; 48 hours) | IC50 ([7]; 48 hours) | IC50 ([8]; 48 hours) | IC50 (colon cancer cells) | IC50 (HeLa cervix cancer cells) | acridine orange / ethidium bromide staining colour of cells (cancer cells [1]) | nuclear condensation (DAPI) [2] | relative rate of dead cells having a DNA content of 2N or less (cancer cells [3]) | number of viable cancer cells (microscopy) [4] | effect on MMP-3 mRNA expression level (MMP-3 mRNA expression) | cleavage of PARP and CPP32 (Western blotting) [5] | nuclear condensation and fragmentation (DAPI) [2] | further results
CC1=C(/C=C/C(C)=C/C=C/C(C)=C/C(=O)Nc2ccc(O)cc2)C(C)(C)CCC1 [HPR, (2E,4E,6E,8E)-[3,7-dimethyl-9-(2,6,6-trimethylcyclohex-1-enyl)-nona-2,4,6,8-tetraenoylamino]-4-hydroxyphenylamide] | 8 µM | 2 µM | > 100 µM | 15 µM | 6 to 8 µM | 3 µM | – | – | much higher rates than other groups | – | – | – | largely showed nuclear fragmentation | activity relative to ATRA for all 3 RARs (RARs and RXRs): about 50%
